Row | SMILES | melting point [°C]
1 | Cc1c(NC(=O)OCc2ccccc2)cccc1C(C[N+](=O)[O-])c1c[nH]c2cc(N3CCOCC3)ccc12 (stereo unspecified) | 137
2 | CC1CN(c2cccc(Cl)n2)N=C1N (stereo unspecified) | 175 to 176
3 | CCn1c(=O)[nH]c2cc3c(N4CCN(C(=O)Nc5ccc(Oc6ccccc6)cc5)CC4)ncnc3cc21 | 248 to 251
4 | Oc1ccc(F)cc1C=C(Cl)Cl | 55 to 57
5 | CSC(C#N)c1cccc(C(=O)c2ccccc2)c1N (stereo unspecified) | 107 to 108
6 | O=Cc1ccc2c3cccc4cccc(c5cccc1c52)c43 | 230
7 | Cn1c(=O)c(-c2c(Cl)cccc2Cl)cc2cnc(Nc3ccc4c(c3)OCO4)nc21 | 240 to 241
8 | O=c1[nH]c(=S)[nH]cc1Cc1cnc2ccccc2c1 | 290 to 292
9 | Cc1n[nH]c2c1C(=O)CC(C)(C)C2 | 103 to 104
10 | CC12CC(NC(=O)OCC(Cl)(Cl)Cl)C3C(CCC4CC(O)CCC43C)C1CCC2C(=O)O (stereo unspecified) | 212 to 220
11 | CC(C)[C@](C)(S)C(=O)O | 78 to 80
12 | CP(=O)(O)CC(F)CN (stereo unspecified) | 78 to 84
13 | CN1CCC(c2nn(CO)c3ccccc23)CC1 | 128 to 130
14 | Cc1noc(C)c1-c1nn(Cc2ccccc2)c(=O)c2ccccc12 | 186 to 188
15 | CC(C)c1cc(C(C)C)c(CCC(=O)O)c(C(C)C)c1 | 194 to 196
16 | CCCc1[nH]c(C(=O)OCC)c(C)c1CCC | 84 to 87
17 | N=C1N(c2ccccc2)CCN1c1ccccc1[N+](=O)[O-] | 257 to 259
18 | COc1ccc(Br)c(C(Cl)=NNS(=O)(=O)c2ccccc2)c1 | 104 to 106
19 | CC(C)(O)c1nc(-c2ccc(-c3cnc4[nH]c(=O)n(CC5CCOCC5)c4n3)cc2)n[nH]1 | 249 to 253
20 | OCc1cccc(Nc2nc(Oc3ccccc3)nc(Oc3ccc(Cl)cc3)n2)c1 | 110 to 114
21 | CCN(SCc1nccs1)C(=C[N+](=O)[O-])SC | 63 to 64
22 | CCOC(=O)NC(=O)C(c1ccccc1)c1ccccc1 | 133
23 | COc1cc2c(cc1[N+](=O)[O-])N(C)C(=O)CNC2 | 145 to 149

Row | SMILES | melting point [°C]
24 | OC1(c2ccc(F)cc2)CCN(Cc2ccnc(-c3ccccc3)c2)CC1 | 149 to 151
25 | CC(C)c1nc2ccccn2c(=O)c1-c1ccc(Cl)cc1 | 98 to 100
26 | O=C(O)c1cccc(-c2cccc3cc(Cc4cccc(F)c4)oc23)c1 | 135 to 136
27 | COc1ccc(-c2ccc(C(=O)O)cn2)cc1 | 252 to 253
28 | CCc1nc2c(-c3ccc(Cl)cc3Cl)nccn2c1C(C)O (stereo unspecified) | 165 to 166
29 | Cc1c(F)c(F)c(N)c2c(=O)c(C(=O)O)cn(-c3nc(N)c(F)cc3F)c12 | 250
30 | CC(=O)c1cccc(-c2ncc(OCCCN(C)C)cn2)c1 | 61 to 62
31 | CCOC(=O)Cc1c(C)n(Cc2csc(-c3ccc(Cl)cc3)n2)c2ccc(OCc3csc(-c4ccccc4)n3)cc12 | 155 to 157
32 | CCOC(=O)C(C(=O)OC(c1ccccc1)c1ccccc1)C(=O)c1cc(F)c(OC)nc1Nc1ccc(F)cc1F (stereo unspecified) | 130 to 131
33 | COC(=O)c1ccc(Cl)cc1-n1c(CCl)nc2ccccc2c1=O | 155 to 157
34 | Cc1nnc(-c2ccc3occ(-c4cccc(OC(F)(F)F)c4)c3n2)o1 | 146 to 147
35 | CC1(C)CCc2cc(S(=O)(=O)n3c(CCCC(=O)O)cc4cc(Cl)ccc43)ccc2O1 | 166 to 169
36 | c1ccc2c(c1)Oc1ccncc1O2 | 102 to 108
37 | CCOC(=O)c1cc(=O)c(Oc2ccc(OC)cc2)co1 | 106 to 107
38 | CN1CCC(c2c(O)cc(O)c3c(=O)cc(-c4ccc(C(F)(F)F)cc4)oc23)C1CO (stereo unspecified) | 238
39 | N#Cc1ccc(Oc2ccc(C3CCCN4CCS(=O)(=O)N=C34)cc2)cc1Cl (stereo unspecified) | 219 to 220
40 | N#Cc1cnn(-c2c(Cl)cc(C(F)(F)F)cc2Cl)c1C=CC(=O)NS(=O)(=O)Cc1ccccc1 | 178 to 183
41 | O=c1cc(-c2ccccc2)cc2n1CCN2 | 198 to 200
42 | O=C(O)CCCC(c1ccccc1)c1ccccc1 | 87 to 90
43 | O=c1c(CCCCc2ccccn2)cc2cccnc2n1-c1cccc([N+](=O)[O-])c1 | 163 to 165
44 | O=C(Nc1ccc(-c2ncc(-c3ccc(NC(=O)C4CCCCCC4)cc3)[nH]2)cc1)c1ccc([N+](=O)[O-])cc1 | 236 to 238
45 | O=C(NCCO)c1cccc(-c2cccc3nn(Cc4ccccc4)cc23)c1 | 166 to 167
46 | CC(C)(C)OC(=O)N[C@@H](Cc1ccc(O)cc1)C(=O)N[C@H](Cc1ccccc1)C(=O)NCC(=O)O | 105 to 110

Row | SMILES | melting point [°C]
47 | CC(C)c1cc2c(cc1Oc1cnc(N)nc1N)OCCN2C | 167 to 170
48 | CN(C)c1ccc(C(=CC(C=C(c2ccc(N(C)C)cc2)c2ccc(N(C)C)cc2)c2ccc(N(C)C)cc2)c2ccc(N(C)C)cc2)cc1 | 215 to 220
49 | CNC(=O)N1CC[C@H](OCc2cc(C(F)(F)F)cc(C(F)(F)F)c2)[C@H](Cc2ccccc2)C1 (relative stereo) | 160 to 161
50 | c1ccc(-c2nc(SCCCSCCCSc3nc(-c4ccccc4)c(-c4ccccc4)[nH]3)[nH]c2-c2ccccc2)cc1 | 208 to 209
51 | C=CCNC(=S)N1CCc2[nH]cnc2C1 | 172
52 | COC(=O)C1(S(=O)(=O)N2CCC(=O)CC2)CCOCC1 | 158 to 160
53 | O=C(N1CC(CCl)c2c1ccc1ccccc21)C(F)(F)F (stereo unspecified) | 185
54 | CS(=O)(=O)c1ccc(-c2cnn(CC(F)(F)F)c(=O)c2SCc2ccccc2)cc1 | 108 to 111
55 | CCc1ccc2cc(C)c(-n3cncn3)nc2c1 | 72 to 73
56 | C=C(Cc1ccc(-c2ccccc2)cc1)CN1CCC(C)CC1 | 53
57 | CC1(C)CCC(C)(C)c2cc(-c3cc(-c4ccc(C(=O)O)cc4)ccc3OCCCCCCCCCO)ccc21 | 147 to 150
58 | O=C(NCCO)/C(=C/c1ccc(OCC(F)F)cc1)NC(=O)c1ccc(OCCCC2CC2)cc1 | 149 to 151
59 | COC(=O)c1cccc(Cn2ccc(OCc3ccc(F)cc3F)c(Cl)c2=O)c1F | 171 to 174
60 | OC1(c2ccccc2)CCN(CCC2COc3ccccc3O2)CC1 (stereo unspecified) | 142
61 | CC(C)(C)c1ccc(Sc2ccc(Br)cc2)cc1 | 39 to 46
62 | CCOC(=O)c1c(N)oc(-c2ccc([N+](=O)[O-])cc2)c1C(=O)OCC | 174 to 177
63 | CCn1nc(C)c([N+](=O)[O-])c1C(N)=O | 175 to 177
64 | CCOP(=O)(OCC)C1=C(C(=O)OC(c2ccccc2)c2ccccc2)N2C(=O)C(NC(=O)COc3ccccc3)C2CC1 (stereo unspecified) | 70 to 74
65 | O=[N+]([O-])C(=CC(O)C(=C1NCCN1Cc1ccc(Cl)nc1)[N+](=O)[O-])C1=NCCN1Cc1ccc(Cl)nc1 (stereo unspecified) | 157 to 162
66 | Cc1ccc(S(=O)(=O)NC2(C)c3ccccc3C=Cc3ccccc32)cc1 | 175 to 178
67 | CS(=O)(=O)C(=C1CN(C(c2ccccc2)c2ccccc2)C1)c1cccc(C(F)(F)F)c1 | 178

Next, values leading:

Row | melting point [°C] | SMILES
68 | 178 to 180 | CC(CSC#N)n1nnc2cc3c(=O)n(C4CC4)nnc3cc2c1=O (stereo unspecified)
69 | 222 to 223 | CCCCc1c2c(nn1C(C)(C)C)c(N)nc1ccccc12
70 | 188 | O=C(O)COc1cc2cc(CO)sc2c(Cl)c1Cl
71 | 235 to 237 | Nc1nc(CCc2ccccc2)nc2nc(-c3ccco3)nn12
72 | 102 to 103 | Fc1ccc(C(c2ccc(F)cc2)C2CCN(CCCOc3c(Cl)cccc3Cl)CC2)cc1
73 | 101 to 103 | CC(C)NC(=O)c1ccccc1
74 | > 320 | Cc1nccc2[nH]c(=O)c(C(N)=O)cc12
75 | 208 to 209 | Cn1cncc1-c1cccc(Nc2nccc3ccccc23)c1
76 | 112 to 113 | CCOC(=NC(=O)c1ccc(C(F)(F)F)cc1)N1Cc2ccccc2-c2ccccc2C1
77 | 178 to 187 | CC(C)CC(NC(=O)c1ccccc1)C(=O)NC(CCCN(C(=N)NC(=O)OCc1ccccc1)C(=O)OCc1ccccc1)C(=O)Oc1cccc2ccccc12 (stereo unspecified)
78 | 106 to 107 | CC(C)Oc1ccc(Cc2cc3cccc(-c4cccc(C(=O)NCCO)c4)c3s2)cn1
79 | 159 | CC(=NNc1ccccc1)c1ccc(O)cc1O
80 | 65 to 67 | CON=C(C)c1c(C)oc2c(-n3c(=O)cc(C(F)(F)F)n(C)c3=O)c(F)cc(Cl)c12
81 | 128 to 131 | CCc1nn(-c2cc(NC(=O)CCOC)ccc2Cl)c(=O)n1Cc1ccc(-c2ccccc2S(=O)(=O)NC(=O)OC(C)(C)C)cc1F
82 | 176 to 177 | O=c1nc(-c2ccccn2)sc2cc(C(F)(F)F)ccc12
83 | 67 to 70 | COCCc1cccc2oc(C(=O)Nc3ccc(-c4ccc(S(=O)(=O)NC(C(=O)OC)C(C)C)cc4)cc3)c(C)c12 (stereo unspecified)
84 | > 175 | Nc1nc(N)c(CCCNc2ccc(C(=O)N[C@@H](CCC(=O)O)C(=O)O)cc2F)c(=O)[nH]1
85 | 165 to 167 | COc1ccc(C2=NN(c3ccc(CC(=O)N4CCOCC4)cc3)C(=O)C(C)(C)C2)cc1OC
86 | 162 to 163 | Brc1ccc(-c2nc3cc(Br)ccc3s2)cc1
87 | 164 to 166 | COc1ccc2c(OC(C)C)c(C(N)=O)sc2c1
88 | 104 to 106 | Cc1cc(Cl)c2ccc(Cl)cc2c1CCC=O
89 | 138 | CCOC(=O)C1=C(COCCNS(=O)(=O)NC(=O)c2ccco2)NC(C)=C(C(=O)OC)C1c1ccccc1Cl (stereo unspecified)
90 | 161 to 162 | CCCCCc1nc2ccccc2[nH]1
91 | 160 to 162 | COC(=O)CCc1ccc(N2CCN(c3ccc(C#N)cc3)C2=O)cc1
92 | 143 | CCn1cc(CN(C(=O)C2CCCc3c(OCCCN(C)C)cccc32)c2ccc(C(C)C)cc2)cn1 (stereo unspecified)
93 | 54 to 57 | CC(=O)c1ccc(Sc2cccc(Br)c2)cc1
94 | 192 to 194 | Nc1ccc2c(c1)CC(CC(=O)O)C2=O (stereo unspecified)
95 | 139 to 141 | CC(=O)Nc1ccc(C(C)=C(Cl)Cl)cc1[N+](=O)[O-]
96 | 76 to 78 | CCCOC(=O)c1cc(-n2c(OC)nc(C(F)(F)F)c(F)c2=O)c(F)cc1Cl

Reference: a melting point compilation (Tetko et al.; mined from patent text by program, amines drawn as free bases though some values may be those of a salt)
